Test results: patent EP0569777A2 (Bayer Corporation, priority 1992, dated 1993)
Entries after “also recorded” stand apart in the source; their conditions may differ. Where a SMILES comes first, the peptide text is derived from it. [ ]: non-standard residue; d: D form. The star is where a group is joined. Sta = CC(C)C[C@H](N)[C@@H](O)CC(=O)O; Isovaleryl = CC(C)CC(=O)*

Columns and labels:
Assay type in all cases: biochemical
[1] = system: human AD brain fraction P2 V APP degrading activity; test: Immunoblot assay of APP 695 degradation by Mono-Q pool P2 V; settings: 11.5 kDa fragment, trial A,B, Pepstatin A 400µM (methanolic), pH 6.5, 24 hrs, 37°C
Description: ii) Solubilization. The membranous control or AD subfractions (P-2 or M) were solubilized by adjusting to the following conditions: 2% (v/v) Triton X-100 containing 50 mM Tris HCl buffer, pH 7.5. After stirring at 4°C for 3.5 hrs, the suspensions were centrifuged at 105,000 g x 60 min in a Beckman 70 Ti rotor. The following final protein concentrations were used in solubilization, for P-2 (3.9 to 4.0 mg/ml); and for M (1.4 to 1.6 mg/ml). Solubilized supernatants were stored at -70°C for later use. The soluble fraction was not treated with detergent but rather was adjusted to 50 mM in Tris HCl, pH 7.5, by the addition of stock 1M buffer. iii) Ion-exchange chromatography. Chromatography was performed using a Gilson gradient liquid chromatograph (model 305 and 306 pumps) equipped with a 50 ml Rheodyne stainless steel loop injector model 7125, and connected to a Mono Q HR 10/10 column (Pharmacia, Piscataway, NJ). Absorbance of column effluent was monitored at 280 nm using a Pharmacia UV-M detector and a Kippen-zonen chart recorder. […] In the initial studies, eluted fractions were monitored for A280 nm, total protein (Bradford assay), and peptidase activity (as decsribed in Examples 2 and 3). […] Fractions were monitored for A 280 nm, total protein (Bradford assay), peptidase activity, and activity for C-terminal processing of recombinant APP. […]

[2] = molecular target: T1, human cathepsin D (human liver, Cal Biochem, catalog # 219401) (Homo sapiens, UniProt P07339); test: Immunoblot assay of holo-APP 695 degradation by purified cathepsin D
Description: The numbers indicate the time (hr) after initiation of reactions. Reactions were initiated at 37°C by the addition of APP to achieve the following initial component concentrations: APP (82 nM), cathepsin D (9.2 ug/ml),in […] Mes buffer pH 6.5. Samples without pepstatin received the same amount of solvent (1.3 % v/v methanol). At t=0, 43, 84, 140 and 215 minutes aliquots (15 ul) were removed mixed with 7.5 ul of SDS-PAGE sample buffer and subject to immunoblot analysis using the Rabbit antiserum to the APP C-terminal domain. The 18 and 28 kDa reaction products are located with arrows.
Reactions were initiated at 37°C by APP addition thereby achieving the following initial component concentrations: APP (448 nM), cathepsin D (30 nM), and when included pepstatin A (97.2 µm) in 83 mM sodium acetate buffer pH 5.0. At the indicated time points, aliquots (20 ul), were removed mixed with 10 ul of 3X SDSPAGE sample buffer and subjected to immunoblot analysis using monoclonal antibody 286.8A (1/100). Reactions were performed in the absence (-) or presence (+) of pepstatin A (delivered in methanol). All samples received 2.7 % (v/v) methanol. Lanes 1 and 12 contained prestained Mr markers, Lanes 10 and 18 contained C-100 Mr marker. Lanes 11 and 13 contained APP incubated without cathepsin D for zero and 21hr respectively. The main product fragments are indicated with arrows. […]

[3] = molecular target: T1, human cathepsin D (human liver, Cal Biochem, catalog # 219401); test: N-dansyl peptide (SEQ ID NO: 7) peptidase assay with HPLC detection, cathepsin D; settings: pepstatin A 213 uM; cathepsin D 2.8 ug/ml, N-Dansyl-peptide 24 uM, pH 5.0, 37 C; Figure 10
Description: (§1) Reactions (30 ul) were initiated at 37 C by enzyme/inhibitor addition thereby achieving the following t=0 component concentrations: Cathepsin D (2.8 ug/ml), or P-2 enzyme from figure 6 (17.5 ug/ml), N-Dansyl-peptide (24 uM), captopril (0.3 mM) in a cocktail buffer comprising 130 mM in each of acetate, Mes and Tris pH 5.0. Samples contained either pepstatin A (213 uM in 3% v/v final methanol) or an equivalent final concentration of methanol only. At 0, 2, 4, 8 and 24hr, reactions were terminated by addition of 12 % (v/v) TFA (10 ul) and subject to HPLC analysis according to example 2 and 3.
(§2) • i) Incubations. […] Incubation with ion-exchange fractions was performed at 37°C for 24 hrs, after which reactions were terminated by adjusting to 3% (v/v) final in TFA. • ii) HPLC quantification of proteolytic products. HPLC analysis was performed using a Hewlet-Packard HP1090 complete with binary solvent delivery, heated column compartment, and auto injector.

[4] = molecular target: human brain P-2 enzyme (peak B), aspartic protease identified as cathepsin D (Homo sapiens, UniProt P07339); test: N-dansyl peptide (SEQ ID NO: 7) peptidase assay with HPLC detection, P-2 enzyme (peak B); settings: pepstatin A 213 uM; P-2 enzyme 17.5 ug/ml, N-Dansyl-peptide 24 uM, pH 5.0, 37 C; Figure 10
Description: as §1, §2

T1 sequence (P07339 with tags, fused parts or gaps): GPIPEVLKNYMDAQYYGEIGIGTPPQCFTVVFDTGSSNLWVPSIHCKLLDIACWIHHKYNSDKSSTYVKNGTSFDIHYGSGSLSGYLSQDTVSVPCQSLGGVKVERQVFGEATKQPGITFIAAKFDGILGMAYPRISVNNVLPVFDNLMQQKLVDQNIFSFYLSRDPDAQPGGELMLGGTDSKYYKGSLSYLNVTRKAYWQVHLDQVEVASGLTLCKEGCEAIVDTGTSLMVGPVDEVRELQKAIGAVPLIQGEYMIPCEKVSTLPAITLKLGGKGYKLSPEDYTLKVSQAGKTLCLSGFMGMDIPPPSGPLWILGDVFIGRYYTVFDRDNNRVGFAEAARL
Sequence of human brain P-2 enzyme (peak B), aspartic protease identified as cathepsin D (P07339 with tags, fused parts or gaps): as above

Compound: CC(C)CC(=O)N[C@H](C(=O)N[C@H](C(=O)N[C@@H](CC(C)C)[C@@H](O)CC(=O)N[C@@H](C)C(=O)N[C@@H](CC(C)C)[C@@H](O)CC(=O)O)C(C)C)C(C)C [pepstatin A] (Isovaleryl-VV[Sta]A[Sta]-OH)
- Inhibitors (pH 6.5): compounds causing complete inhibition are listed [1]: completely; also recorded: pepstatin A aprotinin
- Inhibition of cathepsin D catalysed APP cleavage (18 and 28 kDa C-terminal products) ([2]; 86 uM pepstatin A, APP 82 nM, cathepsin D 9.2 ug/ml, Mes buffer pH 6.5, 37°C, Figure 8): Inhibition
- Inhibition of cathepsin D catalysed APP degradation (beta-amyloid immunoreactive bands, Figure 13) ([2]; pepstatin A 97.2 µm, APP 448 nM, cathepsin D 30 nM, sodium acetate buffer pH 5.0, 37°C): inhibited
- Inhibition of peptidase reaction catalyzed by Cathepsin D [3]: inhibited
- Inhibition of peptidase reaction catalyzed by the P-2 enzyme preparation [4]: inhibited
